Among the data in patent US20260317312A1, “ISOXAZOLIDINES AS RIPK1 INHIBITORS AND USE THEREOF” (GENZYME CORPORATION, priority 2023, published 2026) are IC50 values, retold here.

For assay [1], the target named is T1, hRIPK1 (aa 1-375) fusion protein (Homo sapiens, UniProt Q13546).
T1 construct: hRIPK1 (aa 1-375) fusion protein
T1 sequence (Q13546 1-375): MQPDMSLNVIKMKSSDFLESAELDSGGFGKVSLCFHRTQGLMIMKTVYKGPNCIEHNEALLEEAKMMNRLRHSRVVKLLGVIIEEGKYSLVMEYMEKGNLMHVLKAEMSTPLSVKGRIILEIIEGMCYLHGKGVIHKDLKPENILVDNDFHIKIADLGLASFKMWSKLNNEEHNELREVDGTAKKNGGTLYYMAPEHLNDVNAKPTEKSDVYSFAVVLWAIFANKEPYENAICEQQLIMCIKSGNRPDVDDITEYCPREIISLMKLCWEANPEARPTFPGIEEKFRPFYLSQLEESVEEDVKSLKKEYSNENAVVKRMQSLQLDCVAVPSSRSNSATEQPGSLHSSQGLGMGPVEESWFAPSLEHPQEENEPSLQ
Nature of the assay: Receptor-Interacting Protein Kinase 1 inhibition, ADP Glo assay (conversion of ATP to ADP due to autophosphorylation). The following applies: ATP 50 μM, 30 min preincubation, 240 min incubation, room temperature, DMSO 1%. The format is biochemical. The method in brief:
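The readout was ADP-Glo luminescence after a 240 min rt autophosphorylation reaction with 50 μM ATP, following 30 min preincubation of 3.6 μg/ml hRIPK1 (aa 1-375) fusion with compound at 33300-1.69 nM final in 1% DMSO. Values came from Levenberg-Marquardt nonlinear fits.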
In general terms: ADP-Glo turns the ADP formed in a reaction into a luminescent signal.

The next assay has as its system U937 cells. The experiment in a line: Cellular assay in U937 cells to measure activity of RIPK1-inhibitors on cell death (necroptosis). The format is cell-based. The following applies: Homo sapiens, U-937, TNFα/zVAD.fmk induced cell death (necroptosis), overnight (18 to 24 hrs), 37° C., MTS readout.

Each structure is given as a SMILES string.

The term IC50 denotes the concentration that inhibits the measured activity by half. A lower IC50 goes with inhibition by little substance. `Cc1cc(C)n(-c2ccc(OC[C@H]3CC[C@H](C(=O)N4OCC[C@H]4c4cc(F)cc(C#N)c4)CC3)c(F)c2)n1` [Compound 76, trans-3-((S)-2-(4-((4-(3,5-dimethyl-1H-pyrazol-1-yl)-2-fluorophenoxy)methyl)cyclohexane-1-carbonyl)isoxazolidin-3-yl)-5-fluorobenzonitrile]: the IC50 (in assay [1]; with U937 cells) was 47 nM each time.
`N#Cc1cncc([C@@H]2CCON2C(=O)[C@H]2CC[C@H](COc3ccc(C(N)=O)cn3)CC2)c1` [Compound 99, trans-6-[[4-[(3S)-3-(5-cyano-3-pyridyl)isoxazolidine-2-carbonyl]cyclohexyl]methoxy]pyridine-3-carboxamide]: the IC50 in assay [1] turned out to be 70 nM; with U937 cells, 209 nM.
For `Cc1ccc(OC[C@H]2CC[C@H](C(=O)N3OCC[C@H]3c3cc(F)cc(F)c3)CC2)cc1C(N)=O` [Compound 86, trans-5-((4-((S)-3-(3,5-difluorophenyl)isoxazolidine-2-carbonyl)cyclohexyl)methoxy)-2-methylbenzamide], in that order: 22 nM and 10 nM.
`N#Cc1ccnc(NC[C@H]2CC[C@H](C(=O)N3OCC[C@H]3c3ccc(Cl)cc3)CC2)n1` [Compound 14, trans-2-(((4-((S)-3-(4-chlorophenyl)isoxazolidine-2-carbonyl)cyclohexyl)methyl)amino)pyrimidine-4-carbonitrile]: the IC50 in assay [1] is 33 nM; in the assay with U937 cells, 503 nM.
For `N#Cc1cc(F)cc([C@@H]2CCON2C(=O)[C@H]2CC[C@H](CNc3cc(C#N)ncn3)CC2)c1` [Compound 30, trans-6-(((4-((S)-3-(3-cyano-5-fluorophenyl)isoxazolidine-2-carbonyl)cyclohexyl)methyl)amino)pyrimidine-4-carbonitrile], the IC50 in assay [1] was found to be 59 nM; in the assay on U937 cells it was 264 nM.
`N#Cc1cc(F)cc([C@@H]2CCON2C(=O)[C@H]2C[C@H](n3ncc4cc(F)ccc43)C2)c1` [Compound 98, trans-3-fluoro-5-[(3S)-2-[3-(5-fluoroindazol-1-yl)cyclobutanecarbonyl]isoxazolidin-3-yl]benzonitrile]: the IC50 in assay [1] amounted to 41 nM; in the assay on U937 cells, 359 nM.
For `N#Cc1cc(F)cc([C@@H]2CCON2C(=O)[C@H]2CC[C@H](COc3ccnc(C#N)c3)CC2)c1` [Compound 93, trans-4-[[4-[(3S)-3-(3-cyano-5-fluoro-phenyl)isoxazolidine-2-carbonyl]cyclohexyl]methoxy]pyridine-2-carbonitrile], in that order: 18 nM and 13 nM.
The matching figures for `N#Cc1cc(N[C@H]2C[C@@H](C(=O)N3OCC[C@H]3c3ccc(F)c(F)c3)C2)ncn1` [Compound 22, cis-6-((3-((S)-3-(3,4-difluorophenyl)isoxazolidine-2-carbonyl)cyclobutyl)amino)pyrimidine-4-carbonitrile]: 40 nM and 313 nM.
For `N#Cc1cc(O[C@H]2C[C@@H](C(=O)N3OCC[C@H]3c3cc(F)cc(F)c3)C2)ccc1F` [Compound 65, cis-5-(3-((S)-3-(3,5-difluorophenyl)isoxazolidine-2-carbonyl)cyclobutoxy)-2-fluorobenzonitrile], in that order: 18 nM and 49 nM.
For the compound `Cc1cc(C)n(-c2ccc(OC[C@H]3CC[C@H](C(=O)N4OCC[C@H]4c4cncc(C#N)c4)CC3)c(F)c2)n1` [Compound 90, trans-5-((S)-2-(4-((4-(3,5-dimethyl-1H-pyrazol-1-yl)-2-fluorophenoxy)methyl)cyclohexane-1-carbonyl)isoxazolidin-3-yl)nicotinonitrile], the IC50 in assay [1] was found to be 21 nM; in the assay on U937 cells it was 23 nM.
Consider `O=C([C@H]1CC[C@@H](COc2cc(Cl)ncn2)CC1)N1OCC[C@H]1c1cc(F)cc(F)c1` [Compound 56, cis-(4-(((6-chloropyrimidin-4-yl)oxy)methyl)cyclohexyl)((S)-3-(3,5-difluorophenyl)isoxazolidin-2-yl)methanone], for which the IC50 in assay [1] was found to be 47 nM; in the assay on U937 cells, 125 nM.
